How the values were obtained:
Wee1-like protein kinase = Wee1-like protein kinase (Homo sapiens, UniProt P30291); test: Inhibition of human WEE1 using LSNLYHQGKFLQTFCGSPLYRRR peptide as substrate incubated for 40 mins in presence of [gamma-33P]ATP by scintillation counting method
[1] = molecular target: Serine/threonine-protein kinase PLK1 (Homo sapiens, UniProt P53350); test: Inhibition of human PLK1 incubated for 40 mins in presence of [gamma-33P]ATP by scintillation counting method
[2] = Oral bioavailability in CD-1 mouse at 10 mg/kg; assay type: ADME, organism-based; details: in vivo

Serine/threonine-protein kinase PLK1, sequence (P53350 whole entry): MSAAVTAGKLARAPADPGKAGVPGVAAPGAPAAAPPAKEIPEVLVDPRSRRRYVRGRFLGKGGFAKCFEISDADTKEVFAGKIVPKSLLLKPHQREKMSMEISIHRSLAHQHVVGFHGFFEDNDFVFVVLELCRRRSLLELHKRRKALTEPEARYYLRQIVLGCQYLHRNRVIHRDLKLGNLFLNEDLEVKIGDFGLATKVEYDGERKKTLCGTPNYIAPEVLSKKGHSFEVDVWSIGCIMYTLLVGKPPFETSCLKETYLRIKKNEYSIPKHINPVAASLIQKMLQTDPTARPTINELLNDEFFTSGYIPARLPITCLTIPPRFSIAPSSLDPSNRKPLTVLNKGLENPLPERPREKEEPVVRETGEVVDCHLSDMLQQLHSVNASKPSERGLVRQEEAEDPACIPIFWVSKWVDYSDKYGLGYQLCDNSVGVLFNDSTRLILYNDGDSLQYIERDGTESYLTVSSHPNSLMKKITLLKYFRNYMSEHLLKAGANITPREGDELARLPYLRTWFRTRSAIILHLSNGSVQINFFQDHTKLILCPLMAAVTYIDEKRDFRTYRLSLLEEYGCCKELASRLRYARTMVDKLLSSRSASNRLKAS
Wee1-like protein kinase, sequence (P30291 whole entry): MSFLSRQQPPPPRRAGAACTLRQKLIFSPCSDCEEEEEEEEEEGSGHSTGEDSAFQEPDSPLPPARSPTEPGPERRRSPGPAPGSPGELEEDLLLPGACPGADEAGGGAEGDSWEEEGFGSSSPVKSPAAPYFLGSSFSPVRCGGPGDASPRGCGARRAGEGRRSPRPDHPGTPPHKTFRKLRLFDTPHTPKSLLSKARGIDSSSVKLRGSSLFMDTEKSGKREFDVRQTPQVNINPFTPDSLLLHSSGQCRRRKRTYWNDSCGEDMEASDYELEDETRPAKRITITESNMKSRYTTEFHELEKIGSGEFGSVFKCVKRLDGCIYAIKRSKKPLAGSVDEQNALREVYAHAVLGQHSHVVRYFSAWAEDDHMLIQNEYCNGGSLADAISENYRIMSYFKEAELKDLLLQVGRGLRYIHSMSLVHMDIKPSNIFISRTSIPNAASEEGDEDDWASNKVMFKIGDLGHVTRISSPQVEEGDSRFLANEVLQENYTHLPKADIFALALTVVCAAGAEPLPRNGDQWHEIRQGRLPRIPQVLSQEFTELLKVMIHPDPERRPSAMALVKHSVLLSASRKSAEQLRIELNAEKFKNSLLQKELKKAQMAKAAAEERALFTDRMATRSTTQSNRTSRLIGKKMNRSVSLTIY

Row | Compound | IC50 (Wee1-like protein kinase) [µM] | IC50 [1] [µM] | bioavailability [2] [%]
1 | CC(C)(O)c1cccc(-n2cc(F)c3cnc(Nc4ccc(NC(=O)C5CCOCC5)cc4)nc32)n1 | 0.052 | 0.03 | –
2 | CN1CCN(c2ccc(Nc3ncc4c(F)cn(-c5cccc(C6(F)COC6)n5)c4n3)cc2)CC1 | 0.019 | 0.024 | –
3 | CCN1CCC(Oc2ccc(Nc3ncc4c(F)cn(-c5cccc(C(C)(C)O)n5)c4n3)cc2)CC1 | 0.019 | 0.039 | –
4 | CC(C)(O)c1cccc(-n2cc(F)c3cnc(Nc4ccc(C(=O)NC5CCOCC5)cc4)nc32)n1 | 0.045 | 0.009 | –
5 | CN1CCN(c2ccc(Nc3ncc4c(F)cn(-c5cccc(N=S(C)(C)=O)n5)c4n3)cc2)CC1 | 0.026 | 0.384 | > 90
6 | CC(C)(O)c1cccc(-n2cc(F)c3cnc(Nc4ccc(N5CCNC6(CC6)C5)cc4)nc32)n1 | 0.063 | 0.061 | –

The remaining compounds from weak to strong by IC50 (Wee1-like protein kinase), led by results:

Row | IC50 (Wee1-like protein kinase) [µM] | IC50 [1] [µM] | bioavailability [2] [%] | Compound
7 | 0.052 | 0.06 | – | CC(C)(O)c1cccc(-n2cc(F)c3cnc(Nc4ccc(N5CCNCC5)cc4)nc32)n1
8 | 0.039 | 0.029 | – | CN1CCC(NC(=O)c2ccc(Nc3ncc4c(F)cn(-c5cccc(C(C)(C)O)n5)c4n3)cc2)CC1
9 | 0.033 | 0.059 | – | CN1CCC(NC(=O)c2ccc(Nc3ncc4ccn(-c5cccc(C(C)(C)O)n5)c4n3)cc2)CC1
10 | 0.033 | 0.034 | – | CCN1CCC(NC(=O)c2ccc(Nc3ncc4c(F)cn(-c5cccc(C(C)(C)O)n5)c4n3)cc2)CC1
11 | 0.024 | 0.03 | – | CC(C)(O)c1cccc(-n2cc(F)c3cnc(Nc4ccc(N5C[C@@H]6C[C@H]5CN6)cc4)nc32)n1
12 | 0.021 | 0.019 | – | CC(C)(O)c1cccc(-n2cc(F)c3cnc(Nc4ccc(N5C[C@H]6C[C@@H]5CN6)cc4)nc32)n1

Source: ChEMBL document CHEMBL4825769, “Modulation of KRAS Mutant by Inhibiting PLK1 Kinase in Cancer Therapeutics” (ACS Med Chem Lett, 2021)
